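Each compound was tested at five concentrations against cells in 96-well plates for 48 hours. GI50 = concentration required for 50% inhibition of growth. Definition used: TGI = concentration required for complete inhibition of growth.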 Where a SMILES comes first, the peptide text is derived from it. [ ]: non-standard residue; d: D form. The star is where a group is joined. Bn2Val = CC(C)[C@@H](C(=O)*)N(Cc1ccccc1)Cc1ccccc1; NH(4-Cl-benzyl) = Clc1ccc(CN*)cc1; NMeV = CN[C@H](C(=O)O)C(C)C; dNMeA = CN[C@H](C)C(=O)O

Some test systems named below: RPMI-8226 leukemia; LOX IMVI melanoma; HCT-116 colon; CAKI-1 renal; SF-295 CNS; HCT-15 colon; ACHN renal; NCI/ADR-RES ovarian; MALME-3M melanoma; MDA-MB-231 breast.
Common to all, as to assay: NCI-60 cell line screen, 48 h

Turning to `C=CCOn1c(C=C)nc2ccc(C)cc21`, the TGI in the test with RPMI-8226 leukemia came out at 24.9 µM; with LOX IMVI melanoma, 37.5 µM; with HCT-116 colon, 24.4 µM; with CAKI-1 renal, 49.3 µM; in the test with SF-295 CNS it was 82.6 µM; with HCT-15 colon it was 68.2 µM. Further, the TGI was 59.6 µM in the test on ACHN renal, greater than 100 µM with NCI/ADR-RES ovarian, 38.9 µM in the test on MALME-3M melanoma and 48.1 µM with MDA-MB-231 breast.

Consider `O=c1[nH]n(Cc2ccccc2)c2ccc([N+](=O)[O-])cc12`, for which the TGI with RPMI-8226 leukemia, in the test on LOX IMVI melanoma, in the test on HCT-116 colon, in the test on CAKI-1 renal, in the test on SF-295 CNS and with HCT-15 colon was greater than 100 µM throughout. In addition, the TGI is greater than 100 µM in the test with ACHN renal, greater than 100 µM in the test with NCI/ADR-RES ovarian, greater than 100 µM in the test on MALME-3M melanoma and 78.6 µM with MDA-MB-231 breast.

`CN1CC2=C(NC(=S)NC2c2ccccc2)/C(=C/c2ccccc2)C1` (stereo not given): the TGI in the test on RPMI-8226 leukemia was greater than 100 µM; in the test with LOX IMVI melanoma, greater than 100 µM; in the test on HCT-116 colon, 63.3 µM; in the test on CAKI-1 renal, greater than 100 µM; with SF-295 CNS it was greater than 100 µM; with HCT-15 colon, greater than 100 µM. Moreover, the TGI with ACHN renal was greater than 100 µM; in the test on NCI/ADR-RES ovarian it was greater than 100 µM; with MALME-3M melanoma, greater than 100 µM; in the test with MDA-MB-231 breast, greater than 10 µM.

As for `CN(Cc1cnc2nc(N)nc(N)c2n1)c1ccc(C(=O)NC(CO)CCCO)cc1` (stereo not given), the TGI in the test with RPMI-8226 leukemia, with LOX IMVI melanoma, in the test with HCT-116 colon, with CAKI-1 renal, in the test on SF-295 CNS and with HCT-15 colon was greater than 100 µM each time. The TGI in the test with ACHN renal, in the test with NCI/ADR-RES ovarian, in the test with MALME-3M melanoma and with MDA-MB-231 breast was greater than 100 µM in each case.

As for `Cc1nn(-c2ccccc2)c(C)c1/C=N/N=C1\S/C(=C\c2ccc(Cl)cc2)C(=O)N1c1ccccc1`, the TGI in the test on RPMI-8226 leukemia, with LOX IMVI melanoma, in the test on HCT-116 colon, in the test on CAKI-1 renal, with SF-295 CNS and in the test on HCT-15 colon was greater than 100 µM throughout. The TGI in the test with ACHN renal, with NCI/ADR-RES ovarian, in the test with MALME-3M melanoma and in the test on MDA-MB-231 breast was greater than 100 µM throughout.

Regarding `COC[C@@H](N=Cc1ccc([N+](=O)[O-])cc1)C(C)C`, the TGI in the test on RPMI-8226 leukemia, with LOX IMVI melanoma, with HCT-116 colon, in the test on CAKI-1 renal, in the test with SF-295 CNS and in the test with HCT-15 colon was greater than 100 µM each time. For the same compound, the TGI with ACHN renal, with NCI/ADR-RES ovarian, in the test with MALME-3M melanoma and with MDA-MB-231 breast was greater than 100 µM each time.

As for `Cc1nnc2n1N=C(c1ccc(Cl)cc1Cl)/C(=C/c1ccc(-c3ccc([N+](=O)[O-])cc3Cl)o1)S2`, the GI50 in the test on RPMI-8226 leukemia is 10.2 µM; in the test with LOX IMVI melanoma, 12.3 µM; in the test on HCT-116 colon, 12.3 µM; in the test on CAKI-1 renal it was 25.2 µM; in the test with SF-295 CNS, 43.5 µM; in the test with HCT-15 colon it was 16.9 µM. Besides, the GI50 in the test with ACHN renal is 18.5 µM; with NCI/ADR-RES ovarian it was 18.4 µM; with MALME-3M melanoma, 21.2 µM; in the test on MDA-MB-231 breast, 12.2 µM. In addition, the TGI in the test with RPMI-8226 leukemia was 24.9 µM; in the test with LOX IMVI melanoma, 27.4 µM; in the test with HCT-116 colon it was 24.8 µM; with CAKI-1 renal, 84.8 µM; in the test with SF-295 CNS it was greater than 100 µM; in the test with HCT-15 colon it was 42.9 µM. Also, the TGI with ACHN renal amounted to 34.6 µM; in the test with NCI/ADR-RES ovarian, 37.4 µM; in the test on MALME-3M melanoma, 56.1 µM; in the test with MDA-MB-231 breast it was 30.6 µM.

In the case of `Cc1cc(OC(=O)NCn2cc(-c3ccccc3)nn2)ccc1Cl`, the TGI with RPMI-8226 leukemia, in the test on LOX IMVI melanoma, in the test with HCT-116 colon, in the test with CAKI-1 renal, in the test on SF-295 CNS and with HCT-15 colon was greater than 100 µM each time. The TGI in the test on ACHN renal, in the test on NCI/ADR-RES ovarian, in the test with MALME-3M melanoma and in the test with MDA-MB-231 breast was greater than 100 µM each time.

For `NCC(O)CSCc1ccc(Cl)cc1` (stereo not given), the TGI with RPMI-8226 leukemia, with LOX IMVI melanoma, with HCT-116 colon, with CAKI-1 renal, in the test on SF-295 CNS and in the test with HCT-15 colon was greater than 100 µM in each case. Besides, the TGI with ACHN renal, in the test on NCI/ADR-RES ovarian, in the test on MALME-3M melanoma and in the test with MDA-MB-231 breast was greater than 100 µM in each case.

As for `COc1ccc(C(SC2C(O)C(CO)OC2n2ccc(=O)[nH]c2=O)(c2ccccc2)c2ccc(OC)cc2)cc1` (stereo not given), the TGI with RPMI-8226 leukemia was greater than 100 µM; with LOX IMVI melanoma, 31.5 µM; with HCT-116 colon, 29.2 µM; in the test with CAKI-1 renal, greater than 100 µM; with SF-295 CNS, 43.3 µM; with HCT-15 colon, 33.3 µM. For the same compound, the TGI with ACHN renal turned out to be 81.5 µM; in the test on NCI/ADR-RES ovarian it was 47.1 µM; in the test on MALME-3M melanoma, 36.7 µM; with MDA-MB-231 breast, 31 µM.

Consider `CC(C)[C@H](NC(=O)[C@H](C(C)C)N(Cc1ccccc1)Cc1ccccc1)C(=O)N(C)[C@H](C(=O)N1CCC[C@H]1C(=O)N(C)[C@H](C)C(=O)NCc1ccc(Cl)cc1)C(C)C` (Bn2Val-V[NMeV]P[dNMeA]-{NH(4-Cl-benzyl)}), for which the TGI in the test with RPMI-8226 leukemia was greater than 100 µM; in the test with LOX IMVI melanoma it was 3.63 µM; in the test with HCT-116 colon it was 11.7 µM; in the test with CAKI-1 renal it was greater than 100 µM; in the test on SF-295 CNS, 11.1 µM; in the test with HCT-15 colon, 41.2 µM. Also, the TGI in the test on ACHN renal is 10.1 µM; in the test with NCI/ADR-RES ovarian, 95.7 µM; in the test with MALME-3M melanoma, greater than 29.7 µM; with MDA-MB-231 breast, 11.8 µM.

The values above are taken from PubChem BioAssay (NCI).
